According to patent US9550989B2, “Rational design of microRNA-siRNA chimeras for multi-functional target suppression” (Washington University, priority 2013, dated 2017):

Experiments:
Format in all cases: cell-based, human
HeLa cells = experiment: Transwell migration assay; conditions: transwell migration; for promotion of cell motility as compared to the negative control: increase by %; for cell mobility on average as compared to the control: increased to % of control
Experimental: (A) Transwell migration assays to assess changes in cell motility. (B) MTS assays to assess changes in cell proliferation.
(§1) FIG. 7 depicts images and graphs showing functional characterization of aiR-9 on cell motility and cell death. […] One representative microscope image from each assay is presented here. (B) Impact of aiR-9 on cell death. TP53 deficiency renders HCT116 cells resistance to cisplatin-induced cell death. HCT116 cells and HCT116 p53^−/− cells were treated with cisplatin (50 μM) and cell death was determined as sub-G1 population by flow cytometry analysis after DNA PI staining. Furthermore, HCT116 cells were transfected with negative control RNA, aiR-9-2 or miR-9 individually followed by cisplatin treatment, and then analyzed by flow cytometry for cell death with PI staining.
Cultured cells were resuspended and washed with PBS buffer. Fifty thousand cells in 100 μL serum-free medium were added to the upper chamber of each Transwell (24-well insert with 8 um pore size from Costar). The lower chamber was filled with 600 μL medium containing 10% bovine serum. Cells were incubated for 6 h and cells on top of the membrane were removed with a cotton-tipped swab. Cells that had migrated through the membrane were fixed and stained with Hema-3 (Fisher Scientific) for counting.

TP53 = experiment: Real-time RT-PCR of target mRNA; conditions: HeLa cells
Description: FIG. 6 depicts sequences and a graph showing design and validation of aiRNA-9. (A) Sequences of three aiR-9 RNAs. […] The seed regions are underlined.

HCT116 cells = experiment: Flow cytometry of cisplatin-induced cell death (sub-G1, PI staining); conditions: cisplatin 50 μM
Experimental: as §1
HCT116 and HCT116 p53^−/− cells were cultured in DMEM with 10% FBS. Cisplatin, DNase-free RNase and Propidum Iodide (PI) were purchased from Sigma. After treatment with cisplatin (50 μM), all cells (both floating and attached) were collected, washed once with DPBS, and then fixed with 70% ethanol on ice for at least 30 minutes. Fixed cells were washed twice with DPBS and then stained with PI solution [PI (25 μg/ml) and DNase-free RNase (100 μg/ml) diluted in PBS] at room temperature for 1 hour avoiding light exposure. Data were acquired by BD Aris FACS and analyzed using Flowing Software 2 version 2.5.0 (Finland).

For “aiR-9-2: aiRNA with miR-9 seed and TP53 siRNA homology, SEQ ID NO:11 UCUUUGGUUGGGGAGAGGAGC (listed as RNA, chemistry not given here)”, the “promotion of cell motility as compared to the negative control” value (HeLa cells) was 57%, the “cell mobility on average as compared to the control” value (HeLa cells) was 157% and the “suppression of TP53 expression” value (TP53) was “effectively suppress”. The “cisplatin-induced cell death (sub-G1 cell population)” value (HCT116 cells) was “drastic suppression of cisplatin-induced cell death”.
In the case of “miR-9: natural miRNA, SEQ ID NO:9 UCUUUGGUUAUCUAGCUGUAUGA (listed as RNA, chemistry not given here) [reference compound]”, the “promotion of cell motility as compared to the negative control” value (HeLa cells) is reported as 44% and the “cell mobility on average as compared to the control” value (HeLa cells) is reported as 144%.
